In US12486270B2, “Receptor tyrosine kinase inhibitors for treatment of protein kinase modulation-responsive disease or disorder” (THE UNITED STATES OF AMERICA, as represented by the …, priority 2019, dated 2025):
Blank lines part the entries; values can stand above or below the molecule they belong to.

Columns and labels:
EphA2 [1] = target: T1, EphA2 (Homo sapiens (Human), UniProt P29317); assay: Binding affinity to EphA2 by microscale thermophoresis (MST); settings: towards EphA2
Text: The binding affinities of the compounds to EphA2 were investigated by microscale thermophoresis (MST) (M. Jerabek-Willemsen et al., J. Mol. Struct. 2014, 1077, 101-113).

[2] = tested on: SW620 colorectal cancer cell; assay: Cell death by flow cytometry after DRAQ5/PI staining, colorectal cancer cells (SW620); format: cell-based, human; settings: 72 hours
Experimental: Cell viability was measured by flow cytometry. Briefly, floating and adherent cells were collected by centrifugation, pelleted and suspended in PBS −/− (ThermoFisher, 10010-049) supplemented with 1% BSA (Sigma, A2153), 5 mM EDTA (Qualify Biological, 351-027), 10 mM glucose (Sigma, D9434) and 10 mM HEPES (Corning, 25-060-CI). After the cells (1×10^6 cells/mL) were stained with 25 μM DRAQ5 (BioLegend, San Diego, CA; 424101) for 60 minutes and 2 μg propidium iodide (ThermoFisher, P3566) for 15 minutes, analysis was performed on a FACSCantoll (BD Biosciences, Franklin Lakes, NJ; 338962). Results were analyzed by FloJo software (FlowJo LLC, Ashland, OR).

SW620 cells = assay: Cleaved caspase-3 immunofluorescence microscopy in colorectal cancer cells (SW620); format: cell-based, human; settings: 72 hours
Experimental: Cell viability was also measured by detection of cell-associated cleaved caspase-3. Cells were grown on gelatin-coated glass chamber slides, fixed in 4% paraformaldehyde, immune-stained with rabbit monoclonal antibody to cleaved Caspase 3 (1:100 Cell Signaling Technology) followed by Alexa Fluor 488-conjugated anti-rabbit IgG (1:400 Invitrogen) and mounted with Vectastain containing DAPI (Vector Laboratories). The slides were imaged through a Zeiss LSM780 confocal microscope. Image quantification (cleaved Caspase-3^+ nucleiltotal nuclei) was performed by CellProfiler software.

LC3B [3] = assay: LC3B autophagy marker by immunoblotting in HT-29 cells; format: cell-based, human
Experimental: Western blotting. Protein lysates were separated by SDS-PAGE and then transferred to a nitrocellulose membrane. After blocking, membranes were incubated overnight with antibodies to LC3 (rabbit Monoclonal antibody, Cell Signaling).

SW620 = assay: Cell cycle analysis by flow cytometry in colorectal cancer cells (SW620); format: cell-based, human; settings: 72 hours; compared to control and NVP/NVP-Iso
Experimental: Cell cycle was assessed by flow cytometry. Adherent cells were harvested, washed with PBS and fixed for 30 minutes in cold 70% ethanol at 4° C. Cells were washed twice with PBS, treated with 2.5 μg/mL RNaseA (ThermoFisher, 12091039) for 30 minutes at room temperature, and then stained with 10 μg propidium iodide for 15 minutes prior to analysis performed on FACS Canton (BD Biosciences; San Jose, CA) and cell cycled analyzed (FloJo software).

EphB4 = EphB4 (Homo sapiens (Human), UniProt P54760); assay: Endogenous EphB4 tyrosine phosphorylation by ELISA in HT29 cell lysates; format: cell-based
EphB4, sequence (P54760 16-987): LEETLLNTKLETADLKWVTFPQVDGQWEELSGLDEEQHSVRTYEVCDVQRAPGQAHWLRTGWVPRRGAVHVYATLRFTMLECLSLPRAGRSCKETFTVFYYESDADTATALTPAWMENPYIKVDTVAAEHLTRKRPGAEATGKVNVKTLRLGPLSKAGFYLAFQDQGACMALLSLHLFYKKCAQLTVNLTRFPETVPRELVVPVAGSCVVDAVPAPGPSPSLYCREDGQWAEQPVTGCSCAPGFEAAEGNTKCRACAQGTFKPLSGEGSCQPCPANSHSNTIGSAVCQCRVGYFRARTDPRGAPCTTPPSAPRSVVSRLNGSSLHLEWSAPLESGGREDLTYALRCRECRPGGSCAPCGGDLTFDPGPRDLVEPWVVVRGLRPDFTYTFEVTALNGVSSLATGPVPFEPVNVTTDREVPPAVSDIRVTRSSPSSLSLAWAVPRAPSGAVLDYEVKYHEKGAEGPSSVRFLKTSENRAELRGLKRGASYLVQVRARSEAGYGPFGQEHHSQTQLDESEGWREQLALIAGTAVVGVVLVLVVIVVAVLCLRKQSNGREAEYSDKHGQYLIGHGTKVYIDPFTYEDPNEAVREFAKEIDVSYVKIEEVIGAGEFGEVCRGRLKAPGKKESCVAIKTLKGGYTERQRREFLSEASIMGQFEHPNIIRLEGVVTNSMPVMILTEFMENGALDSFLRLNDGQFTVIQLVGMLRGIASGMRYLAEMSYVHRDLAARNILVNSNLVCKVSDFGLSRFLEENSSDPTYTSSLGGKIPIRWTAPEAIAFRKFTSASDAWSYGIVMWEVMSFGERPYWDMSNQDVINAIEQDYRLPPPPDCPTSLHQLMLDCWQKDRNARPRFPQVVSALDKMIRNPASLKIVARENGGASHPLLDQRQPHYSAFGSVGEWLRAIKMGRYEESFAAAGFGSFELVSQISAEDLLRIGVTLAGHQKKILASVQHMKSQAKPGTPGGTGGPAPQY
Experimental: (§1) ELISA. ELISA plates (ThermoFisher Scientific, Immulon 4HBX, 3855) were coated overnight at 4° C. with capture antibody 75 ng/well in PBS, and blocked with 5% BSA (Sigma-Aldrich, St. Louis, MO) in PBS for two hours at room temperature. Capture antibodies for EphB4 was goat polyclonal antibody (R&D Systems AF3038); for EphA2 was goat polyclonal antibody (R&D Systems AF3035); 10 ug of cell lysate was applied to the ELISA well for two hours at room temperature. The amount of tyrosine phosphorylation was measured with pTyr-HRP antibody (R&D Systems, HAM1676). The ELISA was developed with 3,3′,5,5′-Tetramethylbenzidine (TMB) (ThermoFisher Scientific, 7588927) for 15 minutes and stopped with 1M H2SO4 (Sigma-Aldrich, 258105). Absorbance at 450 nm was measured using POLARstar Optima plate reader (BMG Labtech, Cary, NC). All conditions were tested in duplicate. pEphB2 was measured by ELISA (Ray Biotech, PEL-EphB2-Y) according to the manufacturer's recommendations.

EphB2 = EphB2 (Homo sapiens (Human), UniProt P29323); assay: Endogenous EphB2 tyrosine phosphorylation by ELISA in Colo-205 cell lysates; format: cell-based
EphB2, sequence (P29323 19-1055): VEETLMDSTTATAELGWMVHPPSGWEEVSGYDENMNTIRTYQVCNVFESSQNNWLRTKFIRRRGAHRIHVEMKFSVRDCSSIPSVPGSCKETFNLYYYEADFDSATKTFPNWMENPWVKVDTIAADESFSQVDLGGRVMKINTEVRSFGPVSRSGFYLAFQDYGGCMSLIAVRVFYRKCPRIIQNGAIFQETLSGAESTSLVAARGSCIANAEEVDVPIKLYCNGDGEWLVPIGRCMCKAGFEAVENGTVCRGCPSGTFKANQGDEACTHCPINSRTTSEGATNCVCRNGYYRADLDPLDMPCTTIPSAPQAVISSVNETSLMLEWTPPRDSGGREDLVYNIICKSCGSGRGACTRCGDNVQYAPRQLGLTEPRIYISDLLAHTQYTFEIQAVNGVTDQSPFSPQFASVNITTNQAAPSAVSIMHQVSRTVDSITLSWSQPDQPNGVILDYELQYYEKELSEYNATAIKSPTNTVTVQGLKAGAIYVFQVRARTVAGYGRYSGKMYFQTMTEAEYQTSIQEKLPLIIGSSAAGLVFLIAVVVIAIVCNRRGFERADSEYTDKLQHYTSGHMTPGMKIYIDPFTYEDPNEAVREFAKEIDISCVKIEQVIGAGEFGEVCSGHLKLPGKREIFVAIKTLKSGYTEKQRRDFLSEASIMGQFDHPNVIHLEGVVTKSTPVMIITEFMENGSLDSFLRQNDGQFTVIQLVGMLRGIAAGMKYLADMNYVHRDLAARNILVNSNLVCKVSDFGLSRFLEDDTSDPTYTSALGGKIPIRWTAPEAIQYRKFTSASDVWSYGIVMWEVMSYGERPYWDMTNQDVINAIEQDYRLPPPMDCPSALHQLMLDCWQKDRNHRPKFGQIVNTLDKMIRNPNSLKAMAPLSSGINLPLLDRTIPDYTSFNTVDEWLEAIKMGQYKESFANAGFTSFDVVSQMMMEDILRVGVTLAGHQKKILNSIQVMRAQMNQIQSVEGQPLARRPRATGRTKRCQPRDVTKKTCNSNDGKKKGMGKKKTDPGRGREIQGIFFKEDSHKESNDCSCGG
Experimental: as §1

EphA2 [4] = target: T1, EphA2; assay: Endogenous EphA2 tyrosine phosphorylation by ELISA in RKO cell lysates; format: cell-based
Experimental: as §1

HUVEC = HUVEC proliferation (specificity control); format: cell-based, human; settings: 125-2000 nM
MG63 = MG63 proliferation (specificity control); format: cell-based, human; settings: 125-2000 nM
LC3 = LC3 autophagic puncta imaging in HT-29 cells transduced with fluorescent LC3; format: cell-based, human
Experimental: Autophagy-related cell death was assessed by evaluation of LC3 autophagy-associated protein. The cells were first induced to stably express fluorescent pK (pHluorin-mKate2) LC3 by lentiviral infection. The cells were subsequently grown on glass coverslips (ThermoFisher, 12-545-81) until 50% confluent. Coverslips were washed with PBS −/−, fixed with 4% PEA for 15 minutes at room temperature, washed with TBS, mounted with DAPI-containing mounting media, allowed to harden overnight and sealed. Coverslips were imaged on a confocal Zeiss 780 microscope. Images were analyzed by CellProfiler using automatic thresholding to calculate the number of nuclei (DAPI staining) and the number of puncta. The results are expressed as the percent cells with two or more puncta. […] Monolayer cell confluency overtime was measured by IncuCyte HD (Essen BioSciences) imaging.
Immunostaining and microscopy. […] Maximum intensity projections (Zen Software 2.3 Blue Edition; Carl Zeiss) were used for quantification using CellProfiler software (Kamentsky et al., Bioinformatics 2011, 27:1179-1180) with automatic thresholding. Integrated intensity of CD31 was measured. The percent Ki-67 positive cells was measured by calculating the number of Ki-67 positive cells/total number DAPI^+ nuclei. The area of cleaved Caspase-3 positive area/total area was calculated by CellProfiler with automatic threshold. […]

[5] = tested on: colorectal carcinoma cell lines; assay: Proliferation of 10 colorectal carcinoma cell lines; format: cell-based, human; settings: 1 μM, all colorectal carcinoma cell lines
HT-29 cells = assay: HT-29 cell proliferation (3H-thymidine incorporation); format: cell-based, human; settings: co-treatment with autophagy inhibitor, 72 hours
LC3B [6] = assay: LC3B accumulation in SW620 cells; format: cell-based, human; settings: pre-treatment 4 hours; spautin 5 μM, 3-MA 5 mM
Experimental: Western blotting. Protein lysates were separated by SDS-PAGE and then transferred to a nitrocellulose membrane. After blocking, membranes were incubated overnight with antibodies to LC3 (rabbit Monoclonal antibody, Cell Signaling). After washing with TBS-T (TBS with 0.05 Tween-20), membranes were incubated with the HRP (Horseradish peroxidase)-linked secondary antibody (IgG donkey anti-rabbit IgG (NA934) (GE LifeSciences, Marlborough, MA). Blots were developed using ECL prime (GE LifeSciences, RPN2232) and digitally captured on an LAS4000 (GE LifeSciences). After stripping, the membrane was re-probed with a mouse monoclonal antibody to GAPDH (Santa Cruz) followed by a secondary IgG sheep anti-mouse IgG (NA931). Western blot bands were quantified using Fiji (Schindelin et al., 2012).

T1 sequence (P29317 24-976): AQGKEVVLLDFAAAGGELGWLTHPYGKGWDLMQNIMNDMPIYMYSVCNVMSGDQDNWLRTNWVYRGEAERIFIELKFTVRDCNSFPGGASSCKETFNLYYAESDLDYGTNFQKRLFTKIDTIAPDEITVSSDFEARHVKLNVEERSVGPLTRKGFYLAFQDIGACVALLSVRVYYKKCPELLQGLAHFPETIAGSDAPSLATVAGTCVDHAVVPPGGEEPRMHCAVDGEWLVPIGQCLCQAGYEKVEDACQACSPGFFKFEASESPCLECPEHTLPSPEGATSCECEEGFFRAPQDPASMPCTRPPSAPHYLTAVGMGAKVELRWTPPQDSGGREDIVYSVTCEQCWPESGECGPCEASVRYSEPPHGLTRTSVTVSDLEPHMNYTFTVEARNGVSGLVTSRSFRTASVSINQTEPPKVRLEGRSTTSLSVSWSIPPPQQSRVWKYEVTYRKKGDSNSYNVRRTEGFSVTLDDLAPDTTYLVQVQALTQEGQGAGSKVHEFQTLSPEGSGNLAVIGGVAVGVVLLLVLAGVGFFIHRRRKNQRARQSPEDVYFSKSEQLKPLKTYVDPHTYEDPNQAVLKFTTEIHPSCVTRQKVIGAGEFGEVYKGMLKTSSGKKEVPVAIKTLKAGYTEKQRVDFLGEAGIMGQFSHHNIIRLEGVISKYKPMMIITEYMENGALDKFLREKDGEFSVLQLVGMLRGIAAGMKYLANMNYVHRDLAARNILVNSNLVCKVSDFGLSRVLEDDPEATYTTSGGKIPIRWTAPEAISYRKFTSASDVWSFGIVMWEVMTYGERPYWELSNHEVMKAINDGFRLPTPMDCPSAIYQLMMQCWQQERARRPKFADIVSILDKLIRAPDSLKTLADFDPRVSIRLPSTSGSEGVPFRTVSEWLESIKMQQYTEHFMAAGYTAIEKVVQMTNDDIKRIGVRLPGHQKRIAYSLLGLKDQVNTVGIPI

Kd (EphA2 [1]): 3 nM
SMILES: Cc1ccc(C(=O)Nc2cccc(C(F)(F)F)c2)cc1Nc1nc(-c2cnccn2)nc2c1cnn2C [@1, 4-Methyl-3-((1-methyl-6-(pyrazin-2-yl)-1H-pyrazolo[3,4-d]pyrimidin-4-yl)amino)-N-(3-(trifluoromethyl)phenyl)benzamide]
colorectal cancer cell death by flow cytometry (DRAQ5/PI) [2]: no or minimal colorectal cancer cell death
cleaved caspase-3 detection in treated cells (SW620 cells): only in a minority of cells
induction of autophagosome marker LC3B (immunoblotting) (LC3B [3]; 72-hour incubation): failure
distribution of cells within the cell cycle (SW620): marked reduction of the proportion of cells within the G2M phase
inhibitory activity for p-EphB4 compared to NVP (EphB4; four hours treatment): comparable or only slightly reduced inhibitory activity
inhibitory activity for p-EphB2 compared to NVP (EphB2; four hours treatment): comparable or only slightly reduced inhibitory activity
inhibitory activity for p-EphA2 compared to NVP (EphA2 [4]; four hours treatment): comparable or only slightly reduced inhibitory activity

SMILES: Cc1ccc(C(=O)Nc2cccc(C(F)(F)F)c2)cc1Nc1nc(N2CCOCC2)nc(-n2ccnc2)n1 [@10, 3-((4-(1H-imidazol-1-yl)-6-morpholino-1,3,5-triazin-2-yl)amino)-4-methyl-N-(3-(trifluoromethyl)phenyl)benzamide]
Kd (EphA2 [1]): 191 nM
reduction of HUVECs proliferation (HUVEC): moderately inhibitory
reduction of MG63 cell proliferation (MG63): moderately inhibitory
LC3-related autophagy puncta (LC3; 72 hours): also induced LC3B-related puncta
reduction of EphB4 phosphorylation (EphB4; at 2 μM): marginal reduction
reduction of EphB2 phosphorylation (EphB2; at 2 μM): marginal reduction
reduction of EphA2 phosphorylation (EphA2 [4]; at 2 μM): marginal reduction

SMILES: Cc1ccc(C(=O)Nc2cccc(C(F)(F)F)c2)cc1Nc1nc(-c2cccnc2)nc2c1cnn2C [NVP, NVP-BHG712]
reduction of proliferation [5]: > 50%

SMILES: Fc1ccc(CNc2ncnc3ccc(F)cc23)cc1 [Spautin, spautin-1]
anti-proliferative effects of NVP and NVP-Iso in colorectal cancer cells (HT-29 cells): mitigated the anti-proliferative
LC3B accumulation in cells treated with 1 μM NVP or NVP-Iso (LC3B [3]; spautin 5 μM, 3-MA 5 mM, chloroquine 10 μM): reduced accumulation of LC3B
LC3-related puncta/cell increased by NVP and NVP-Iso (LC3; spautin 4-hour pretreatment): reduces this drug-effect
LC3B accumulation induced by NVP and NVP-Iso in SW620 cells (LC3B [6]): reduces this LC3B accumulation
